The target of data set [1] is T1, CYP6Z2 (Anopheles gambiae, UniProt A8I285).
T1 sequence (A8I285 1-492): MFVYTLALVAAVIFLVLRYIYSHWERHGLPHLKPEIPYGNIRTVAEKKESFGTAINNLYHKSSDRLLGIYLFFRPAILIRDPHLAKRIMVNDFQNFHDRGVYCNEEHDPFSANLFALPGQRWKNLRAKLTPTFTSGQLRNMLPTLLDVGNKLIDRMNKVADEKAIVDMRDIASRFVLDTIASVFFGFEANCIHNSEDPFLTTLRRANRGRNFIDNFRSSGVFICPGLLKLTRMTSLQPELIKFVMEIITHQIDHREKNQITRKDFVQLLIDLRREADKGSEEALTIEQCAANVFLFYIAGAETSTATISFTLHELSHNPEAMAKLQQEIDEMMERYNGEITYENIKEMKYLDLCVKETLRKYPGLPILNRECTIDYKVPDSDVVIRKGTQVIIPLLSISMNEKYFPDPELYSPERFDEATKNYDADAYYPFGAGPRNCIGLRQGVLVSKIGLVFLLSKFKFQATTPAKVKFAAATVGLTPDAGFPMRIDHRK
T1 sequence (Q86QH5 1-679 partner): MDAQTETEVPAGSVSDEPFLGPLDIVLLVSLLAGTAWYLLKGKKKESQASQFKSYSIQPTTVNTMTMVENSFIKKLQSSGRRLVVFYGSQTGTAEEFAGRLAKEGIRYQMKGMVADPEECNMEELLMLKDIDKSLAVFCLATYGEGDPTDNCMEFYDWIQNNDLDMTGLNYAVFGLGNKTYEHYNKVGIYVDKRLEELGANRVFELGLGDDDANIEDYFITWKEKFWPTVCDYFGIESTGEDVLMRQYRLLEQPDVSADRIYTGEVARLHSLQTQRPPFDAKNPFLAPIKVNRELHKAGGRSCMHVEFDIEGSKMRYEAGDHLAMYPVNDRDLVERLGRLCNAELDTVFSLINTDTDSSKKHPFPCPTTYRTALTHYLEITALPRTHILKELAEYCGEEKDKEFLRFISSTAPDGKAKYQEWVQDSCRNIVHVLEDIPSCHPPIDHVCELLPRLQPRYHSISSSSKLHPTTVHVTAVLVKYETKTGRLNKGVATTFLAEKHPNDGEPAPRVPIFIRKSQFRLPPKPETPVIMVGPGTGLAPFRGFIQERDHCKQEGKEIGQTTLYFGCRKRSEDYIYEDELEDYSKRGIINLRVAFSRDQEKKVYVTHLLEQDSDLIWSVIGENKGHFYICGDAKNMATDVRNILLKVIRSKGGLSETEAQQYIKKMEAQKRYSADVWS
T1 sequence (Q86QH4 1-128 partner): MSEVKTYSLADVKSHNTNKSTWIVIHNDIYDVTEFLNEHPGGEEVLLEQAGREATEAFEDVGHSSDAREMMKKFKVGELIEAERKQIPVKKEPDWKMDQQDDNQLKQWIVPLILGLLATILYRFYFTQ
Nature of the data set: biochemical.

Data set [2] deals with CYP6M2 (Anopheles gambiae, UniProt Q7Q449).
Sequence of CYP6M2 (Q7Q449 1-499, one chain of several): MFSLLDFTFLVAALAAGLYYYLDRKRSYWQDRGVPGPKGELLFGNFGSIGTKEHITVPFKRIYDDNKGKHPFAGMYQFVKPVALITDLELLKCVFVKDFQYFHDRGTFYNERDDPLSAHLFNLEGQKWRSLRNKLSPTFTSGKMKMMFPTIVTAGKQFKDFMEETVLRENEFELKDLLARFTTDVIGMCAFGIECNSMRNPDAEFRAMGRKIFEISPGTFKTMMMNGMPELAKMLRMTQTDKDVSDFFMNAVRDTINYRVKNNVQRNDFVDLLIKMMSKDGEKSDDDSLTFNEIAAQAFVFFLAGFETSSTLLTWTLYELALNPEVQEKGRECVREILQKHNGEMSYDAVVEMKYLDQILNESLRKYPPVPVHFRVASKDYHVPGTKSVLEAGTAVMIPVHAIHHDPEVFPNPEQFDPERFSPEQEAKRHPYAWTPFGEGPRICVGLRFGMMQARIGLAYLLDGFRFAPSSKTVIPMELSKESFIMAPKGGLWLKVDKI
In data set [3] the target is T2, CYP6P2 (Anopheles gambiae, UniProt Q8T629, V81I).
T2 sequence (Q8T629 1-507 V81I): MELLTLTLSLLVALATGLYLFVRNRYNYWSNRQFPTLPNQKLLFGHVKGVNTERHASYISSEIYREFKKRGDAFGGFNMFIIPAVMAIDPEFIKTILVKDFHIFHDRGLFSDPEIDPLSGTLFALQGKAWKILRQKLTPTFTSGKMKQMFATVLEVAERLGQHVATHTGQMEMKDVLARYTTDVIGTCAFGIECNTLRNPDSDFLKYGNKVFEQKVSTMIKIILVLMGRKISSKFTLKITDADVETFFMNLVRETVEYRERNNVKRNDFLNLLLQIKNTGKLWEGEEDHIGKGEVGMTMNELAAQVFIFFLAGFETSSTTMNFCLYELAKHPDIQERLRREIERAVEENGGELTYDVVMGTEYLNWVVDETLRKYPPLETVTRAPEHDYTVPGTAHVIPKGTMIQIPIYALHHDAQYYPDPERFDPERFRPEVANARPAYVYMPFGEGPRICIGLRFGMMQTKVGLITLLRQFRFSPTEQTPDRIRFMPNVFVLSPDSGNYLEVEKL
T2 sequence (Q7QFI3 1-587 partner): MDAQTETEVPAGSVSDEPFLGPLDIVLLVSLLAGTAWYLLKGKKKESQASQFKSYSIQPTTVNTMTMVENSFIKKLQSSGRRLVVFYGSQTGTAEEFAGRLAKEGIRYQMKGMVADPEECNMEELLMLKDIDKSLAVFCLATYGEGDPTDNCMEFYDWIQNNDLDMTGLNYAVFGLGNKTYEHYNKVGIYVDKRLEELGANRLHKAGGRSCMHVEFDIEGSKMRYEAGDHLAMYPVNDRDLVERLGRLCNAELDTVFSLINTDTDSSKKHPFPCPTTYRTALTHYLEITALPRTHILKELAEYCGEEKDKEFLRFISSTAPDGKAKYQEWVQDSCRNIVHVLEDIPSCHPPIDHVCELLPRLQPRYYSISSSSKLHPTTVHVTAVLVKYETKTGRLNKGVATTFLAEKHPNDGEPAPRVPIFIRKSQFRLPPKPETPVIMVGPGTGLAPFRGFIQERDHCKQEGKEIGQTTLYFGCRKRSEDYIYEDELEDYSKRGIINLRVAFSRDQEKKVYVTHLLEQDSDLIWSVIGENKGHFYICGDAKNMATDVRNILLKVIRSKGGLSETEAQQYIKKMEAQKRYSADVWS
T2 sequence (Q86QH4 1-128 partner): T1 sequence (Q86QH4 1-128 partner)

Data set [4] addresses T1, CYP6Z2.
Data set [5] concerns the target T3, CYP6P3 (Anopheles gambiae, UniProt Q8T632).
T3 sequence (Q8T632 1-509): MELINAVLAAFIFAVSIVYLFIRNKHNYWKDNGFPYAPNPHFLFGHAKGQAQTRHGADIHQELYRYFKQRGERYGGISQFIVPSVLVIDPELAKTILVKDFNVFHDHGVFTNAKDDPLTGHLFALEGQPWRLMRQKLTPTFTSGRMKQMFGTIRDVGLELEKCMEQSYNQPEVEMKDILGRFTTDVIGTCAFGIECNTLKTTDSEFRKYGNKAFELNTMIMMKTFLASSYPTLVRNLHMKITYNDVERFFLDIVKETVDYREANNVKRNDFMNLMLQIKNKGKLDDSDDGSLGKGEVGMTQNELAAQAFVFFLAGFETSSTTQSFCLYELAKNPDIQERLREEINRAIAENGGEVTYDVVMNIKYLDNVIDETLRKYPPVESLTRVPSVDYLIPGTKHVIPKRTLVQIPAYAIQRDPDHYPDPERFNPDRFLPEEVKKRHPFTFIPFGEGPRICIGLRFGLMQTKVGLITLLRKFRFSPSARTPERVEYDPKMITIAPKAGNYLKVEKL
T3 sequence (Q86QH5 1-679 partner): T1 sequence (Q86QH5 1-679 partner)
T3 sequence (Q86QH4 1-128 partner): T1 sequence (Q86QH4 1-128 partner)

Setting [6] is: category of inhibition of DEF metabolism.

Regarding `CC1(C)C(C=C(Cl)Cl)C1C(=O)OCc1cccc(Oc2ccccc2)c1` (mixture of isomers) [Permethrin, 3-phenoxybenzyl (1R,S)-cis,trans-3-(2,2-dichlorovinyl)-2,2-dimethylcyclopropanecarboxylate], the values for the IC50 in data set [1] (IC50 of DEF metabolism) and in data set [1] (setting [6]) were 13.7 µM and above 10 µM, respectively.
`CCCCOCCOCCOCc1cc2c(cc1CCC)OCO2` [PBO, piperonyl butoxide]: the “Inhibition ratio (%): reduction of PPF depletion caused by PBO” value was 95.3% in data set [2], 91.0% in data set [3], 87.3% in data set [4] and 91.3% in data set [5].
For `CC(COc1ccc(Oc2ccccc2)cc1)Oc1ccccn1` (stereo not drawn) [PPF, pyriproxyfen], the “% PPF depletion + PBO” value is listed as 1.44 ± 0.67% in data set [2] (Anopheles gambiae, pH 7.4); 6.45 ± 3.22% in data set [3] (Anopheles gambiae, pH 7.4); 8.41 ± 1.58% in data set [4] (Anopheles gambiae, pH 7.4); 8.68 ± 1.74% in data set [5] (Anopheles gambiae, pH 7.4). For the same compound, the “% PPF depletion −PBO” value is given as 30.93 ± 4.65% in data set [2] (Anopheles gambiae, pH 7.4); 58.03 ± 1.35% in data set [3] (Anopheles gambiae, pH 7.4); 66.26 ± 3.02% in data set [4] (Anopheles gambiae, pH 7.4). For the same compound, the 50% inhibitory concentration (IC50) (as a rule, the concentration needed to halve the response being measured) in data set [1] (IC50 of DEF metabolism) was 2.23 µM; in data set [1] (setting [6]) it was 1 to 10 µM.

The values are drawn from PMC6399515 (Insect Biochemistry and Molecular Biology, 2016).
